In patent US8871681B2, “Herbicidal compositions comprising 4-amino-3-chloro-5-fluoro-6-(4-chloro-2-fluoro-3-methoxyphenyl) pyridine-2-carboxylic acid or a derivative thereof and certain sulfonylureas” (Dow AgroSciences LLC, priority 2012, dated 2014):

How the values were obtained:
[1] = test system: GALAP (Galium aparine, cleavers); test: Post-emergence foliar-applied weed control in cereal crops, greenhouse (Example III); type: in vivo, Galium aparine (L.); conditions: Table 51, after 20-22 days, 8.75 gai/ha alone
Experimental: Seeds of the desired test plant species were planted in Sun Gro MetroMix® 306 planting mixture, which typically has a pH of 6.0 to 6.8 and an organic matter content of about 30 percent, in plastic pots with a surface area of 103.2 square centimeters (cm^2). When required to ensure good germination and healthy plants, a fungicide treatment and/or other chemical or physical treatment was applied. The plants were grown for 7-36 days in a greenhouse with an approximate 14 hour photoperiod which was maintained at about 18° C. during the day and 17° C. during the night. Nutrients and water were added on a regular basis and supplemental lighting was provided with overhead metal halide 1000-Watt lamps as necessary. […]
Measured aliquot of benzyl ester of 4-amino-3-chloro-5-fluoro-6-(4-chloro-2-fluoro-3-methoxy-phenyl)pyridine-2-carboxylic acid (Compound A) was placed in 25 milliliter (mL) glass vials and diluted in a volume of 1.25% (v/v) Agri-dex crop oil concentrated to obtain stock solutions. […]
The treated plants and control plants were placed in a greenhouse as described above and watered by sub-irrigation to prevent wash-off of the test compounds. After 20-22 days, the condition of the test plants as compared with that of the control plants was determined visually and scored on a scale of 0 to 100 percent where 0 corresponds to no injury and 100 corresponds to complete kill. […]

[2] = test system: VERPE (Veronica persica, bird's-eye speedwell); test: as above; type: in vivo, Veronica persica Poir.
Method in brief: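 Greenhouse plants at the second or third true leaf stage (14 hour photoperiod, about 18/17 °C) were track-sprayed at 187 L/ha with Compound A SC, a second cereal herbicide, or their combinations, using 1.25% v/v crop oil concentrate. Injury was scored visually at 20-22 days against solvent-blank controls on a 0–100% scale. Expected mixture effects were calculated with Colby's equation.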

[3] = test system: CASOB (Cassia obtusifolia, sicklepod); test: Post-emergence herbicidal activity of mixtures in forage crops, greenhouse (Example IV); type: in vivo, Cassia obtusifolia L.; conditions: Table 58 (forage), foliar-applied, after approximately 21 days
Experimental: Seeds or root cuttings of the desired test plant species were planted in Sun Gro MetroMix® 306 planting mixture, which typically has a pH of 6.0 to 6.8 and an organic matter content of about 30 percent, in plastic pots with a surface area of 126.6 square centimeters (cm^2). When required to ensure good germination and healthy plants, a fungicide treatment and/or other chemical or physical treatment was applied. The plants were grown for 14-60 days in a greenhouse with an approximate 14 hour photoperiod which was maintained at approximately 28° C. during the day and 24° C. during the night. Nutrients and water were added on a regular basis and supplemental lighting was provided with overhead metal halide 1000-Watt lamps as necessary. The plants were employed for testing when they reached the BBCH13 to BBCH23 leaf stage.
Treatments consisted of the benzyl ester of 4-amino-3-chloro-5-fluoro-6-(4-chloro-2-fluoro-3-methoxy-phenyl)pyridine-2-carboxylic acid (Compound A), formulated as a SC, and a second herbicide alone and in combination.
A measured aliquot of Compound A was placed in 25 milliliter (mL) glass vial and diluted in a volume of 1.25% (v/v) Agri-dex crop oil concentrated to obtain stock solutions. Compound requirements are based upon a 12 mL application volume at a rate of 187 liters per hectare (L/ha). Spray solutions of the second cereal herbicide and experimental compound mixtures were prepared by adding the stock solutions to the appropriate amount of dilution solution to form 12 mL spray solution with active ingredients in two- and three-way combinations. […]
The treated plants and control plants were placed in a greenhouse as described above and watered by sub-irrigation to prevent wash-off of the test compounds. After approximately 21 days, the condition of the test plants, as compared with that of the control plants, was determined visually and scored on a scale of 0 to 100 percent where 0 corresponds to no injury and 100 corresponds to complete kill. […]

Which “Weed Control GALAP Obs” value [1] does the source give for `COc1c(Cl)ccc(-c2nc(C(=O)OCc3ccccc3)c(Cl)c(N)c2F)c1F` [Compound A Benzyl Ester] here?
The value was 70%.

And the “Weed Control VERPE Obs” value ([2]; Table 51, after 20-22 days, 8.75 gai/ha alone)?
The value was 50%.

What about the “Weed Control VERPE Obs” value ([2]; Table 53, after 20-22 days, 8.75 gai/ha alone) of the same compound?
The value was 50%.

What about the “Weed Control VERPE Obs” value ([2]; Table 55, after 20-22 days, 8.75 gai/ha alone) of the same compound?
Its value is 50%.

And the “Weed Control VERPE Obs” value ([2]; Table 57, after 20-22 days, 8.75 gai/ha Compound A Benzyl Ester alone)?
Its value is 50%.

What about the “Weed Control CASOB Obs” value ([3]; 2.2 gai/ha alone) of the same compound?
The value was 33%.

And the “Weed Control CASOB Obs” value ([3]; 4.4 gai/ha alone)?
The value was 38%.
